Where “and” joins values, the source holds several entries; their conditions need not be identical. Identical values can stand only once.
Key:
caspase 3 = assay: Caspase-Glo 3/7 assay; type: cell-based, human
Method: FIG. 15 (A-D). Effect of HV-107 and HV-118 on Caspase 3/7 activity. FIG. 15 A, C. MDA-MB-231 and FIG. 15 B, D. MDA-MB-435 human metastatic breast cancer cells were treated for 48 or 72 h with 0, 500 or 1000 nM HV-107, 100 or 200 nM HV-118. Caspase 3/7 activity was measured using the Caspase-Glo 3/7 Assay (Promega, Corp.) as per manufacturer's instruction. N=4: error bars represent ±SEM; * p≤0.05.
(§1) Subsequently, the effects of HV-107 and HV-118 were evaluated in cell survival and cell migration, known Rac-regulated cell functions relevant for cancer progression. The effects of HV-107 and HV-118 on cancer cell survival were determined by measuring the levels of active caspase 3 in MDA-MB-231 and MDA-MB-435 metastatic breast cancer cells after treatment with HV-107 at 500 and 1000 nM, or HV-118 at 100 and 200 nM for 48-72 h. After 48 h, HV-107 caused a significant 1.4-1.5 fold increase in caspase 3 activity in MDA-MB-231 (at 500 and 1000 nM) and MDA-MB-435 (at 1000 nM) cells. […] The effects of both compounds were also examined in the activity of Akt, an important kinase that promotes survival signaling, is frequently hyperactivated in malignant cancers, and can be regulated by Rac. Because Akt is activated by phosphorylation events, the effects of HV-107 and HV-118 were analyzed in Akt phosphorylation by western blot (FIG. 16 (A-D)).

Akt = Akt phosphorylation by western blot; type: cell-based, human; details: 24 h
Method: FIG. 16 (A-D). Inhibition of pAKT by HV-107 and HV-118. FIG. 16 A, C. MDA-MB-231 and FIG. 16 B, D. MDA-MB-435 human metastatic breast cancer cells were treated for 24 h with 0, 250, 500 or 1000 nM HV-107, 100 or 200 nM HV-118. After treatment, total protein was extracted, and equal amounts of proteins were western blotted for total and phosphorylated Akt (pAkt). Positive bands were quantified using image J. N=4-6; error bars represent t SEM; * p≤0.05.
as §1

[1] = test system: MDA-MB-231 and MDA-MB435 metastatic breast cancer cell lines; assay: Wound healing assay of HV-107 and HV-118; type: cell-based; details: Homo sapiens, 24 h, read-out: inhibition of cell migration
Method: FIG. 17 (A-B). Effect of HV-107 and HV-118 on cell migration. Wounds were created on confluent monolayers of MDA-MB-231 or MDA-MB-435 human metastatic breast cancer cells. Immediately after, cells were treated for 24 h with FIG. 17A. 0, 1000, or 2000 nM of HV-107; and FIG. 17B. 0, 100, or 200 nM HV-118. The distance traveled by HV-107 and HV-118 treated cells that migrated to close the wound was quantified relative to the distance traveled by control-treated cells. N=4-7; error bars represent ±SEM; * p≤0.05.
Finally, wound healing assays were performed to assess the effects of HV-107 and HV-118 on metastatic breast cancer cell migration.

Rac = Rac (Homo sapiens, UniProt P63000); assay: Rac activation, pulldown with p21-binding domain of PAK / ELISA-based Rac activity assay; type: cell-based; parameters: endogenous in cells; host or cells: MDA-MB-231 and MDA-MB-435 human breast cancer cells; details: for efficiency of Rac activation inhibition compared to lead compound Ehop-016: metastatic breast cancer cells
Method: FIG. 8 (A-B). Effect of HV-107 on Rac activation. FIG. 8A. MDA-MB-231 and FIG. 8B. MDA-MB-435 human breast cancer cells were treated for 24 h with 0, 100, or 250 nM HV-107. After treatment, total protein was extracted and equal amounts of proteins subjected to pulldown assays using the p21-binding domain of PAK to isolate the GTP bound (active) Rac. Samples were then western blotted for total and active Rac and positive bands quantified using image J. N=2; error bars represent ±SEM; * p≤0.05.
FIG. 10 (A-B). Effect of HV-118 on Rac activation. FIG. 10A. MDA-MB-231 and FIG. 10B. MDA-MB-435 human breast cancer cells were treated for 24 h with 0, 25, 50, or 100 nM HV-118. After treatment, total protein was extracted and equal amounts of proteins subjected to pulldown assays using the p21-binding domain of PAK to isolate the GTP bound (active) Rac. Samples were then western blotted for total and active Rac and positive bands quantified using image J. N=3-6; error bars represent ±SEM; * p≤0.05.
Additionally, the effect of replacing the aliphatic amide group at the 3-position with an aromatic ring, was also explored by synthesizing compound 7b. […] Addition of a three-carbon atom aliphatic chain linker between the pyridine ring (at the 2-position) and the morpholine group, as for 3d and 11a, results in some loss of anti-migratory activity. Moreover, the effect of 11b was tested on Rac activity, using an ELISA-based Rac activity assay and pulldowns assay.
The effects of HV-107 on the inhibition of Rac activation were tested by pulldown assays.
In FIG. 8A and FIG. 8B, human breast cancer cells MDA-MB-231 and MDA-MB-435, respectively, were treated for 24 h with […] HV-107. After treatment, total protein was extracted and equal amounts of proteins subjected to pulldown assays using the p21-binding domain of PAK to isolate the GTP bound (active) Rac. Samples were then western blotted for total and active Rac and positive bands quantified using image J. N=2; error bars represent ±SEM; * p≤0.05.
The effects of HV-118 on the inhibition of Rac activation were tested by pulldown assays.
In FIG. 10A and FIG. 10B, human breast cancer cells MDA-MB-231 and MDA-MB-435, respectively, were treated for 24 h with 0, 25, 50, or 100 nM HV-118. After treatment, total protein was extracted and equal amounts of proteins subjected to pulldown assays using the p21-binding domain of PAK to isolate the GTP bound (active) Rac. Samples were then western blotted for total and active Rac and positive bands quantified using image J. N=3-6; error bars represent ±SEM; * p≤0.05.

SMILES	fold increase in caspase 3 activity (caspase 3; MDA-MB-231, 48 h, 500 and 1000 nM)	fold increase in caspase 3 activity (caspase 3; MDA-MB-435, 48 h, 1000 nM)	inhibition at 1 µM (Akt; Homo sapiens, MDA-MB-435, 1000 nM) [%]	inhibition of Akt phosphorylation (Akt; MDA-MB-231, 250-1000 nM)	inhibition at 2 µM ([1]; 2000 nM) [%]	inhibition at 0.25 µM (Rac; at 250 nM, 24 h, MDA-MB-231 and MDA-MB-435 cells) [%]	inhibition of Rac activation (Rac; at 250 nM, 24 h, MDA-MB-231 and MDA-MB-435 cells, listed as HV-107, 0.25 µM)	efficiency of Rac activation inhibition compared to lead compound Ehop-016 (Rac)	fold increase in caspase 3 activity (caspase 3; MDA-MB-231, 48 h, 100 and 200 nM)	fold increase in caspase 3 activity (caspase 3; MDA-MB-435, 72 h, 'the same level' as in MDA-MB-231)	inhibition of Akt phosphorylation (Akt; both MDA-MB-231 and MDA-MB-435, 100 and 200 nM)	inhibition at 0.1 µM ([1]; 100 nM) [%]	inhibition at 0.2 µM ([1]; 200 nM) [%]	inhibition at 0.1 µM (Rac; at 100 nM, 24 h, MDA-MB-231 and MDA-MB-435 cells) [%]	potency relative to EHop-016 (Rac; preliminary data)
CCn1c2ccccc2c2cc(C(=O)Nc3cccnc3N3CCOCC3)ccc21 [Compound 11b, 9-Ethyl-9H-carbazole-3-carboxylic Acid (2-morpholin-4-yl-pyridin-3-yl)-amide]	1.4-1.5 fold	1.4-1.5 fold	25	50-60%	30 to 50	55	60% and 50%	approximately 4 ×	–	–	–	–	–	–	–
CCn1c2ccccc2c2cc(Nc3cc(C)nc(Cl)n3)ccc21 [HV-118, (2-Chloro-6-methyl-pyrimidin-4-yl)-(9-ethyl-9H-carbazol-3-yl)-amine]	–	–	–	–	–	–	–	approximately 10 ×	1.6-1.8 fold	1.6-1.8 fold	40-60%	~60	~80	~60	up to 20 times
